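Assay format: 96-well plates, 48-hour exposure. Abbreviation: GI50, concentration required for 50% inhibition of growth.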 Active and inactive are the calls of the source. No stated cut-off is given here; in the data, active = GI50 up to about 1.1 µM and inactive = higher.
Legend:
Test in all cases: DTP human tumour cell line panel, 48 h
MDA-N = test system: MDA-N
K562 = test system: K562
SK-OV-3 = test system: SK-OV-3
SF-295 = test system: SF-295
EKVX = test system: EKVX
SF-268 = test system: SF-268
NCI-H522 = test system: NCI-H522
SR = test system: SR
MDA-MB-435 = test system: MDA-MB-435
SW-620 = test system: SW-620
OVCAR-8 = test system: OVCAR-8
SN12C = test system: SN12C
SK-MEL-5 = test system: SK-MEL-5
BT-549 = test system: BT-549
U-251 = test system: U-251
MDA-MB-231 = test system: MDA-MB-231
Malme-3M = test system: Malme-3M
ACHN = test system: ACHN
SNB-75 = test system: SNB-75
MOLT-4 = test system: MOLT-4
UACC-257 = test system: UACC-257
SNB-19 = test system: SNB-19
HOP-92 = test system: HOP-92
OVCAR-5 = test system: OVCAR-5
UACC-62 = test system: UACC-62
A549 = test system: A549
CAKI-1 = test system: CAKI-1
786-0 = test system: 786-0
TK-10 = test system: TK-10
RXF 393 = test system: RXF 393
UO-31 = test system: UO-31
NCI-H23 = test system: NCI-H23
IGROV-1 = test system: IGROV-1
M14 = test system: M14
COLO 205 = test system: COLO 205
PC-3 = test system: PC-3
HCT-116 = test system: HCT-116
SK-MEL-28 = test system: SK-MEL-28
SK-MEL-2 = test system: SK-MEL-2
HCT-15 = test system: HCT-15
CCRF-CEM = test system: CCRF-CEM
NCI-H226 = test system: NCI-H226
HOP-62 = test system: HOP-62
HT-29 = test system: HT-29
RPMI-8226 = test system: RPMI-8226
Hs-578T = test system: Hs-578T
OVCAR-3 = test system: OVCAR-3
NCI/ADR-RES = test system: NCI/ADR-RES
HL-60 = test system: HL-60
T47D = test system: T47D
OVCAR-4 = test system: OVCAR-4
KM12 = test system: KM12
DU-145 = test system: DU-145
MCF7 = test system: MCF7
SF-539 = test system: SF-539
NCI-H460 = test system: NCI-H460
LOX IMVI = test system: LOX IMVI
HCC 2998 = test system: HCC 2998
A498 = test system: A498

CCN(CC)c1ccc2nc3ccc(/N=N/c4c(O)ccc5ccccc45)cc3[n+](-c3ccccc3)c2c1
GI50 (MDA-N): > 100 µM (inactive)
GI50 (K562): > 100 µM (inactive)
GI50 (SK-OV-3): > 100 µM (inactive)
GI50 (SF-295): > 100 µM (inactive)
GI50 (EKVX): > 100 µM (inactive)
GI50 (SF-268): > 100 µM (inactive)
GI50 (NCI-H522): > 100 µM (inactive)
GI50 (SR): 1.47 µM (inactive)
GI50 (MDA-MB-435): > 100 µM (inactive)
GI50 (SW-620): > 100 µM (inactive)
GI50 (OVCAR-8): > 100 µM (inactive)
GI50 (SN12C): > 100 µM (inactive)
GI50 (SK-MEL-5): > 100 µM (inactive)
GI50 (BT-549): > 100 µM (inactive)
GI50 (U-251): > 100 µM (inactive)
GI50 (MDA-MB-231): > 100 µM (inactive)
GI50 (Malme-3M): > 100 µM (inactive)
GI50 (ACHN): > 100 µM (inactive)
GI50 (SNB-75): > 100 µM (inactive)
GI50 (MOLT-4): > 100 µM (inactive)
GI50 (UACC-257): > 100 µM (inactive)
GI50 (SNB-19): > 100 µM (inactive)
GI50 (HOP-92): > 100 µM (inactive)
GI50 (OVCAR-5): > 100 µM (inactive)
GI50 (UACC-62): > 100 µM (inactive)
GI50 (A549): > 100 µM (inactive)
GI50 (CAKI-1): > 100 µM (inactive)
GI50 (786-0): > 100 µM (inactive)
GI50 (TK-10): > 100 µM (inactive)
GI50 (RXF 393): > 100 µM (inactive)
GI50 (UO-31): > 100 µM (inactive)
GI50 (NCI-H23): > 100 µM (inactive)
GI50 (IGROV-1): > 100 µM (inactive)
GI50 (M14): > 100 µM (inactive)
GI50 (COLO 205): > 100 µM (inactive)
GI50 (PC-3): > 100 µM (inactive)
GI50 (HCT-116): > 100 µM (inactive)
GI50 (SK-MEL-28): > 100 µM (inactive)
GI50 (SK-MEL-2): > 100 µM (inactive)
GI50 (HCT-15): > 100 µM
GI50 (CCRF-CEM): > 100 µM (inactive)
GI50 (NCI-H226): > 100 µM (inactive)
GI50 (HOP-62): > 100 µM (inactive)
GI50 (HT-29): > 100 µM (inactive)
GI50 (RPMI-8226): > 100 µM (inactive)
GI50 (Hs-578T): > 100 µM (inactive)
GI50 (OVCAR-3): > 100 µM (inactive)
GI50 (NCI/ADR-RES): > 100 µM (inactive)
GI50 (HL-60): 23.9 µM (inactive)
GI50 (T47D): > 100 µM (inactive)
GI50 (OVCAR-4): > 100 µM (inactive)
GI50 (KM12): > 100 µM (inactive)
GI50 (DU-145): > 100 µM (inactive)

C1=CCC[C@@H]2CN3CCCC/C=C\CCCC[C@H]4C[C@H](CN(CCCCCCCC1)C4)[C@H]2CC3
GI50 (MCF7): 9.18 µM (inactive)
GI50 (MDA-N): 8.79 µM (inactive)
GI50 (K562): 9.79 µM (inactive)
GI50 (SF-539): 7.98 µM (inactive)
GI50 (SK-OV-3): > 50 µM (inactive)
GI50 (SF-295): 9.27 µM (inactive)
GI50 (EKVX): 11.3 µM (inactive)
GI50 (NCI-H460): 9.75 µM (inactive)
GI50 (SF-268): 10.5 µM (inactive)
GI50 (NCI-H522): 9.42 µM (inactive)
GI50 (SR): 9.25 µM (inactive)
GI50 (MDA-MB-435): 8.69 µM (inactive)
GI50 (SW-620): 9.02 µM (inactive)
GI50 (OVCAR-8): 9.55 µM (inactive)
GI50 (SN12C): 12.5 µM (inactive)
GI50 (SK-MEL-5): 9.27 µM (inactive)
GI50 (BT-549): 12.9 µM (inactive)
GI50 (U-251): 8.51 µM (inactive)
GI50 (MDA-MB-231): 9.04 µM (inactive)
GI50 (Malme-3M): 9.33 µM (inactive)
GI50 (ACHN): 9.68 µM (inactive)
GI50 (SNB-75): 8.95 µM (inactive)
GI50 (MOLT-4): 9.79 µM (inactive)
GI50 (UACC-257): 10.2 µM (inactive)
GI50 (SNB-19): 10.9 µM (inactive)
GI50 (OVCAR-5): 10.6 µM (inactive)
GI50 (UACC-62): 9.46 µM (inactive)
GI50 (A549): 9.2 µM (inactive)
GI50 (CAKI-1): 9.23 µM (inactive)
GI50 (786-0): 8.67 µM (inactive)
GI50 (TK-10): 8.83 µM (inactive)
GI50 (NCI-H23): 13.2 µM (inactive)
GI50 (IGROV-1): 10.2 µM (inactive)
GI50 (LOX IMVI): 8.59 µM (inactive)
GI50 (M14): 8.97 µM (inactive)
GI50 (COLO 205): 8.28 µM (inactive)
GI50 (PC-3): 12.8 µM (inactive)
GI50 (HCT-116): 9.12 µM (inactive)
GI50 (SK-MEL-28): 7.93 µM (inactive)
GI50 (HCC 2998): 7.59 µM (inactive)
GI50 (SK-MEL-2): 8.61 µM (inactive)
GI50 (HCT-15): 10.4 µM
GI50 (CCRF-CEM): 12.4 µM (inactive)
GI50 (NCI-H226): > 50 µM (inactive)
GI50 (HOP-62): 8.45 µM (inactive)
GI50 (HT-29): 10.9 µM (inactive)
GI50 (RPMI-8226): 8.11 µM (inactive)
GI50 (Hs-578T): 10.3 µM (inactive)
GI50 (OVCAR-3): 8.07 µM (inactive)
GI50 (A498): 12.3 µM (inactive)
GI50 (HL-60): 12 µM (inactive)
GI50 (T47D): 12.7 µM (inactive)
GI50 (OVCAR-4): 12.2 µM (inactive)
GI50 (KM12): 7.91 µM (inactive)
GI50 (DU-145): 18.2 µM (inactive)

C[N+](C)(C)CCOP(=O)(O)OP(=O)([O-])OCC1CCC(n2ccc(N)nc2=O)O1 (centres undefined)
GI50 (MCF7): > 100 µM (inactive)
GI50 (MDA-N): > 100 µM (inactive)
GI50 (SK-OV-3): > 100 µM (inactive)
GI50 (EKVX): > 100 µM (inactive)
GI50 (OVCAR-8): > 100 µM (inactive)
GI50 (BT-549): > 100 µM (inactive)
GI50 (U-251): > 100 µM (inactive)
GI50 (MDA-MB-231): > 100 µM (inactive)
GI50 (MOLT-4): > 100 µM (inactive)
GI50 (SNB-19): > 100 µM (inactive)
GI50 (786-0): > 100 µM (inactive)
GI50 (RXF 393): > 100 µM (inactive)
GI50 (IGROV-1): > 100 µM (inactive)
GI50 (COLO 205): > 100 µM (inactive)
GI50 (PC-3): > 100 µM (inactive)
GI50 (HCT-116): > 100 µM (inactive)
GI50 (SK-MEL-2): > 100 µM (inactive)
GI50 (CCRF-CEM): > 100 µM (inactive)
GI50 (Hs-578T): > 100 µM (inactive)
GI50 (NCI/ADR-RES): > 100 µM (inactive)
GI50 (T47D): > 100 µM (inactive)

From ChEMBL document CHEMBL1201862, “PubChem BioAssay data set” (2004)
